Seven molecules from publication PMC4004800, “Preclinical evaluation of marketed sodium channel blockers in a rat model of myotonia discloses promising antimyotonic drugs” (Experimental Neurology, 2014) can be followed below.

One test deals with T1, hNav1.4 (human skeletal muscle sodium channel) (Homo sapiens, UniProt P35499).
T1 construct: gene SCN4A; alpha subunit permanently transfected in HEK293 cells; no beta subunit mentioned
T1 sequence (P35499 whole entry): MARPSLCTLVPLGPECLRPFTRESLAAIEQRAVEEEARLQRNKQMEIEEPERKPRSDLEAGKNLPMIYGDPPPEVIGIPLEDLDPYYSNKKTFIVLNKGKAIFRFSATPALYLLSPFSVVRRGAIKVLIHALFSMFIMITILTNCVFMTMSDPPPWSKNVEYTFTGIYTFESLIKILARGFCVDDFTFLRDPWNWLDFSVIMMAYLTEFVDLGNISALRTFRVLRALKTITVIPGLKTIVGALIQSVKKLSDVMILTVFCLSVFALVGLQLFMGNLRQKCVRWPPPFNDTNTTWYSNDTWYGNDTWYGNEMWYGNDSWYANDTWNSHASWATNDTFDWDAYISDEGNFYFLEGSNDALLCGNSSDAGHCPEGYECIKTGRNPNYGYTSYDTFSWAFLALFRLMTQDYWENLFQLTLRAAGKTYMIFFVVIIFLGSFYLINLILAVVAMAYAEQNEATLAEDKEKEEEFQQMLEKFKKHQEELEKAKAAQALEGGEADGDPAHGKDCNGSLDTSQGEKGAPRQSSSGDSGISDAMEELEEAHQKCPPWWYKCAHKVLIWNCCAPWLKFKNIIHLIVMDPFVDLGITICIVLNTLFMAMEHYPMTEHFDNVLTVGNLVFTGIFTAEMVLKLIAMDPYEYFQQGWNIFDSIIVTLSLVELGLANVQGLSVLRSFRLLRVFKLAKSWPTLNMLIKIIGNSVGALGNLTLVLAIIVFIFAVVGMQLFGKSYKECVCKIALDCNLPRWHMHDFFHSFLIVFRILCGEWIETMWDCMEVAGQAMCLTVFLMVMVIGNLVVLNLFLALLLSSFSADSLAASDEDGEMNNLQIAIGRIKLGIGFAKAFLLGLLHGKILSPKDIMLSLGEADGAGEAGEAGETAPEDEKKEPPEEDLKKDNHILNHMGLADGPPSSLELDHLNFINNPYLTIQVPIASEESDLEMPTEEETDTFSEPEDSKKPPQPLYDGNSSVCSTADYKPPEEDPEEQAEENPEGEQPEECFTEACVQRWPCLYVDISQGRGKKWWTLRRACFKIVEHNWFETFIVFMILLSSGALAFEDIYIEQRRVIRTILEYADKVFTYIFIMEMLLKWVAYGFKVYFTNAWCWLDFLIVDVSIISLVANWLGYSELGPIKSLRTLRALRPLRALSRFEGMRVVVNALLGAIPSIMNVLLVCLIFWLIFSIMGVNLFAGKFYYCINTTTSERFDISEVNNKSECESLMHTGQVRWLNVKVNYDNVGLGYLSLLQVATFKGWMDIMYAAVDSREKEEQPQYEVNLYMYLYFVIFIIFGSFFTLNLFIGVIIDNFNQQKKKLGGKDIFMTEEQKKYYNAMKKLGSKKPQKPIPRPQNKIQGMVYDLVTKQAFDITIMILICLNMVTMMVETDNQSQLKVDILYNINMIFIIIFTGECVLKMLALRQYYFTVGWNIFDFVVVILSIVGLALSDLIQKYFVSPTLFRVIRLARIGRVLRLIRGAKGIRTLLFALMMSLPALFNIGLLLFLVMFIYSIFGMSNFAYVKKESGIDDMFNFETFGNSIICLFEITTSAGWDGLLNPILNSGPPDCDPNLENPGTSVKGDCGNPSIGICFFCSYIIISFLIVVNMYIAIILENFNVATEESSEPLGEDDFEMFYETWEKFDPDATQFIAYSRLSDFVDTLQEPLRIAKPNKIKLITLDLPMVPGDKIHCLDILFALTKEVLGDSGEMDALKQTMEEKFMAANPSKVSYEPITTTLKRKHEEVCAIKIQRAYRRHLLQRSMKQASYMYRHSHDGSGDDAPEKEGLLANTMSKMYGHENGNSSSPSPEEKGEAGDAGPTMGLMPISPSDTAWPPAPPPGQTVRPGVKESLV
Briefly: whole-cell patch clamp, sodium current in HEK293. Conditions: holding potential -90 mV, 5 ms pulses to -30 mV at 50 Hz (myotonia-like), tonic + use-dependent block; read by eye from curve; 20-22 °C, pH 7.4; read-out: IC50 (μM) / 50 Hz, hp - 90 mV. Type of test: cell-based. The source says:
whole-cell patch clamp, sodium current in HEK293 on hNav1.4 (human skeletal muscle sodium channel)
In general terms: Patch clamp records ionic current or voltage across a cell membrane.
Take Lubeluzole: the IC50 is approximately 0.3 µM.

Still in this test, the particulars now being: read-out: IC50 (μM) / 50 Hz, hp - 90 mV.
`Nc1nc2ccc(OC(F)(F)F)cc2s1` [Riluzole]: the IC50 is approximately 0.9 µM. `Cc1cccc(C)c1OCC(C)N` (stereo not shown) [Mexiletine]: the IC50 is approximately 20 µM. Same read-out and setting: to `NC(=O)N1c2ccccc2C2OC2c2ccccc21` (stereo not shown) [epo-CBZ] belongs approximately 70 µM. Consider `NC(=O)N1c2ccccc2C=Cc2ccccc21` [Carbamazepine], for which the IC50 is approximately 100 µM. On the same count and under the same terms, to `CCCNCC(O)COc1ccccc1C(=O)CCc1ccccc1` (stereo not shown) [Propafenone] belongs approximately 1.5 µM; to `O=C(NCC1CCCCN1)c1cc(OCC(F)(F)F)ccc1OCC(F)(F)F` (stereo not shown) [Flecainide], approximately 4 µM.
